Measurements reported in US20200155579A1, “Process for Hydrating Cyclophosphamide Freeze-Dried Composition and Product Thereof” (priority 2018, published 2020).

Columns and labels:
[1] = raw material
Method: The moisture content, CPP content and redissolving time were determined for CPP freeze-dried composition hydrated with saturated sodium chloride solution in the freeze-drying box, respectively. In addition, the CPP freeze-dried compositions hydrated for 16 h and 24 h were placed in 45° C. oven and sampled for determining CPP contents after 1 week and 2 weeks, respectively.
Moisture content, CPP content and redissolving time were determined for CPP freeze-dried composition hydrated with saturated sodium chloride solution in the dryer, respectively. In addition, the CPP freeze-dried composition hydrated for 16 h was placed in 45° C. oven, sampled after 1 week and 2 weeks, respectively and determined for CPP contents. The CPP freeze-dried composition hydrated for 16 h was placed in 40° C./75% RH stability test chamber, was sampled after 1 month and 3 months, and determined for CPP contents, which were compared with CPP monohydrate obtained by prior art hydrating process.
The moisture content, CPP content and redissolving time were determined for CPP freeze-dried composition hydrated with saturated potassium sulfate solution in the dryer, respectively. In addition, the CPP freeze-dried composition hydrated for 16 h was placed in 45° C. oven and was sampled for determining CPP contents after 1 week and 2 weeks, respectively. […]

[2] = CPP content determination (HPLC); type: physicochemical; details: raw material, initial
Method: Preparation of sample stock solution (1 mg/ml anhydrous Cyclophosphamide): an appropriate amount of water is charged into sample bottle with shaking until complete dissolution of the sample, which is transferred to 500 ml volumetric flask. The sample bottle is washed with pure water to ensure complete transfer of all samples into the volumetric flask. The volumetric flask is metered into calibration and shaken for homogeneity.
Preparation of sample solution (0.5 mg/ml anhydrous Cyclophosphamide): 25 ml of sample stock solution and 5.0 ml of internal control solution (precisely weighed 185 mg of ethyl p-hydroxybenzoate control is dissolved in 1000 ml volumetric flask, to which is added 250 ml of ethanol. After shaking for dissolution, pure water is used to meter to calibration with shaking) are charged in 50 ml volumetric flask, which is metered with pure water to calibration with shaking and then used for HPLC analysis.

[3] = Stability in 40° C./75% RH stability test chamber (CPP content); type: physicochemical; details: raw material
Method: The CPP freeze-dried composition hydrated for 16 h was placed in 40° C./75% RH stability test chamber, was sampled after 1 month and 3 months, and determined for CPP contents, which were compared with CPP monohydrate obtained by prior art hydrating process.
The CPP freeze-dried composition hydrated for 16 h was placed in 40° C./75% RH stability test chamber, sampled after 1 month and 3 months for determining CPP contents.

[4] = Porosity (calculated from bulk and skeletal density); type: physicochemical; details: active ingredient; strength NA, hydration solution NA
Method: The porosity is calculated with the macroscopic volume (V0) & true volume (V1) or the bulk density (ρ0) & skeletal density (ρ1) by the following formula: […]

[5] = Bulk density (USP <616> Method I); type: physicochemical; details: active ingredient; strength NA, hydration solution NA
Method: BD is calculated by the following formula: […]
W is the theoretical weight, g;
V0 is the macroscopic volume, mL.
V0 is calculated by the following formula: […]
D is the theoretical inside diameter, cm;

[6] = Skeletal density (gas pycnometer); type: physicochemical; details: active ingredient; strength NA, hydration solution NA
Method: Skeletal Density, also known as true density, is determined at room temperature by Gas Pycnometer (Micromeritics Accupyc II 1340). Skeletal density is calculated by the following formula: […]
V1 is the true volume of the test sample, measured by Gas Pycnometer, mL.

[7] = Reconstitution time (0.9% sodium chloride injection, cyclotron 250 rpm); type: physicochemical; details: active ingredient
Method: Then the glass vial is placed on cyclotron (HY-5, Shanghai Suhao intelligent system Co. Ltd) which makes the glass vial oscillate at 250 rpm at room temperature to dissolve the active ingredient completely. The reconstitution time is recorded in Table 20.

[8] = Tapped density (USP <616> Method I); type: physicochemical; details: active ingredient; strength NA, hydration solution NA
[9] = general description; cited from earlier work
[10] = type: physicochemical; details: air dispersion/dry model; hydration pressure 50 kPa
Method: The hydrated CPP freeze-dried composition is stirred by weighting scoop gently until flowable powder comes into being. Then 1-2 g test sample is added on injection plate. Test method and parameters are as follows:
It will be understood by a person of ordinary skill in the art that a common approach to defining the distribution width is to cite three values on the x-axis, the D10, D50, and D90. As used herein, the term “D50” refers to the median particle diameter, wherein half of the particle population has a diameter below such value. As used herein, the term “D90,” refers to the particle diameter wherein 90% of the particle population has a diameter below such value. As used herein, the term “D10,” refers to the particle diameter wherein 10% of the particle population has a diameter below such value.

O=P1(N(CCCl)CCCl)NCCCO1 (stereo not drawn) [CPP monohydrate raw material, P-[N,N-bis(β-chloroethyl)]-1-oxa-3-aza-2-phosphocyclohexane-P-oxide]
Stability-CPP content % 45° C.-1 week [1]: 106.1% | Stability-CPP content % 45° C.-2 week [1]: 101.8% | CPP content % [2]: 99.6% | Stability-CPP content % 40° C./75% RH-1 month [3]: 98.9% | Stability-CPP content % 40° C./75% RH-3 month [3]: 86.1%

O=P1(N(CCCl)CCCl)NCCCO1 (stereo not drawn) [P-[N,N-bis(β-chloroethyl)]-1-oxa-3-aza-2-phosphocyclohexane-P-oxide]
Porosity [4]: 56.28% | Bulk Density [5]: 0.6246 g/mL | Skeletal Density [6]: 1.4286 g/mL | Reconstitution time ([7]; strength 0.5 g): 8.7 min | Reconstitution time ([7]; strength 1 g): 11.2 min | Reconstitution time ([7]; strength 2 g): 16.4 min | Tapped Density [8]: 0.9369 g/mL | Solubility [9]: soluble in water, normal saline or ethanol | D10 [10]: 5.6 μm | D50 [10]: 34.8 μm | D90 [10]: 262.0 μm
